Source: a melting point compilation (Tetko et al.; mined from patent text by program, amines drawn as free bases though some values may be those of a salt)

Compound | melting point [°C]
COC(=O)C(Oc1cc(OCc2ccsc2)ccc1C#N)c1ccccc1Cl (racemic) | 102 to 104
COc1cc(C(=O)NS(=O)(=O)c2ccccc2C)ccc1Cc1cn(C)c2ccc(CCNC(=O)N3CCOCC3)cc12 | 125 to 133
COc1ccc(C(=O)Nc2ccc3ccc(Oc4cccc(Cl)c4)nc3n2)cc1 | 182
CC(C)C1COCc2nc3c(N)nc4ccc(O)cc4c3n21 (stereo unspecified) | 208 to 210
CN1CSC(=Cc2ccc(O)c(C(C)(C)C)c2)C1=O | > 230
C#Cc1cnn(-c2ccnc3cc(Cl)ccc23)c1 | 174 to 175
O=C(O)c1cnc2ccn(Cc3ccccc3)n2c1=O | 198 to 199
CN1CCN(c2cc3c(cc2F)c(=O)c(C(=O)O)cn3CCO)CC1 | 270
C=CCc1cc(NC(C)=O)ccc1O | 82 to 85
FC(F)(F)c1nc2cc(Cl)c(Cl)cc2nc1-c1nc2ccccc2o1 | 157 to 158
c1ccc2c(c1)nc(-c1ccc3c(c1)OCO3)n2Cc1ccc2c(c1)OCO2 | 173 to 174
Cc1cn(COCOC(=O)c2ccccc2)c(=O)[nH]c1=O | 141 to 143
COc1ccc(-c2oc(CCCCCc3nnn[nH]3)nc2-c2ccc(Cl)cc2)cc1 | 160
CC(C)(C)c1ccc(OCCCN2CCC(C(O)(c3ccc(F)cc3)c3ccc(F)cc3)CC2)cc1 | 126 to 127
COc1ccc2[nH]cc(-c3cc4c(-c5c(C)noc5C)ccnc4[nH]3)c2c1 | 270 to 271
C=CCSC[C@H](NC(=O)OC(C)(C)C)C(=O)OC | 37 to 38
CNC(=NS(C)(=O)=O)NCCCCCc1nc(N)nc(N)n1 | 194 to 195
Cc1ccc(-c2ccc(C(=O)Nc3ccc4cc(CN5CCCC5)cnc4c3C)cc2)cc1 | 177 to 179
CC(NC(=O)C(O)c1cc(F)cc(F)c1)C(=O)NC1N=C(c2ccccc2)c2ccccc2N(C)C1=O (stereo unspecified) | 128

Compound | melting point [°C]
O=C(NCc1ccccn1)Nc1cc(N2CC(Cc3ccccc3)CC2=O)ccn1 (stereo unspecified) | 215 to 220
CC(CCNC(=O)c1ccc(OC(F)(F)F)cc1)CC(C)(C)CNC(=O)c1ccc(OC(F)(F)F)cc1 (stereo unspecified) | 97 to 99
COC(=O)C1CCSc2cc(OC)c(OC)cc2C1=O (stereo unspecified) | 132 to 133
O=C(Nc1ccc(CP(=O)(O)O)cc1)c1cc(=O)c2ccccc2o1 | 265 to 266
O=C(NCCO)c1cccc(-c2ccc3c(c2)N(c2ccc(Cl)cc2Cl)CC3)c1 | 140 to 141
CN1C(=O)C(C(=O)Nc2ccc(Cl)cc2Oc2c(Cl)cccc2Cl)C(=O)N(C)C1=S | 254 to 257
O=C(Cc1cccc(C(F)(F)F)c1)N1CCc2cc3c(cc2CC1)OCO3 | 102 to 104
CCn1c2ccccc2c2cc(OC)c(C#N)cc21 | 145 to 155
CCOC(=O)c1ccc(-c2nn(Cc3ccc(Cl)s3)c3ccccc23)o1 | 124 to 126
CCOC(=O)Cn1c(Br)c(Br)c(C#N)c1Br | 140 to 143
COc1cc(OC)nc(Oc2ccccc2C=NO)n1 | 125 to 128
COC(=O)C(=O)c1ccnc(NC=O)n1 | 143 to 144
CCCc1nc2c(N)nc3ccccc3c2n1OCC(N)=O | 192 to 194
O=C1SCc2c1cccc2[N+](=O)[O-] | 128 to 133
CSc1ncc(C(=O)Cc2c(Cl)cncc2Cl)cc1OC(C)C | 124 to 125
COc1ccc2[nH]cc(CCNC(=O)C(F)(F)F)c2c1 | 135 to 136
O=C(Cc1cccs1)NCc1cccc2c1C(=O)N(C1CCC(=O)NC1=O)C2=O (stereo unspecified) | 171 to 173
CCOC(=O)c1ccc(OCc2nc(-c3ccco3)oc2C)c(Cl)c1 | 145 to 146
CCOC(=O)CO[C@H]1CC[C@H](CCN(C(=O)c2ccccc2)S(=O)(=O)c2ccc(Cl)cc2)CC1 | 81 to 82

Compound | melting point [°C]
CCOC(=O)C=Cc1ccc(O)cc1 | 70 to 71
COc1nccnc1C1(Cl)CN2CCC1CC2 (stereo unspecified) | 59 to 60
COCCNC(=O)c1cc(-c2ccccc2)c(=O)n2ccc3ccsc3c12 | 201 to 202
COc1ccc(NC(=O)Nc2ccc(Cl)c(Cl)c2)cc1NS(=O)(=O)c1cc(Cl)cc(Cl)c1 | 225 to 227
N#Cc1[nH]c(-c2ccc(Cl)cc2)c(C#N)c1Br | > 225
CCC(=O)NC[C@H]1CN(c2ccc(C3C=CS(=O)(=O)CC3)cc2)C(=O)O1 (stereo partly specified) | 144 to 147
COC(=O)CCc1ccc(-n2c(C)cn(-c3ccc(C(=N)NC(=O)OC)cc3)c2=O)cc1 | 212 to 213
O=[N+]([O-])c1ccccc1Cc1n[nH]c(O)n1 | 210 to 212
CCN1c2ncc(C#Cc3cccnc3)cc2C(=O)N(C)c2cccnc21 | 178 to 180
CCOC(=O)COCC(=O)c1ccccc1 | 33 to 35
CCCCCCCCCCCCn1nnc(C(C(=O)Nc2c(C(C)C)cccc2C(C)C)(c2ccccc2)c2ccccc2)n1 | 154 to 156
Cc1nn2c(-c3ccncc3)ccnc2c1C#N | 220 to 221
CCOC(=O)C(F)=C(C)NC(=O)Nc1cc(C(=O)OC(C)C)c(Cl)cc1F | 150 to 152
Clc1ccc2c(c1)C1(CN3CCC(Nc4ncccn4)CC3)CC2c2ccccc21 (stereo unspecified) | 212 to 214
Cc1ccc(NS(=O)(=O)c2ccccc2)cc1 | 118 to 119
CC(C)N1C(=O)CO[C@@H]2c3cc(F)ccc3OCC[C@H]21 (relative stereo) | 127 to 143
CN(C)c1ccc(C(=O)C(C)(C)N(C)C)cc1 | 89 to 91
CN(C)CCN(c1ccc(N)cc1)S(C)(=O)=O | 147 to 148

Other lines, results leading:

melting point [°C] | Compound
75 | COc1ccc(CN(CCN(C)CCCCCCNC(=O)NCCCOc2cccc(CN3CCCCC3)c2)c2ccccn2)cc1
159 to 162 | O=C(C(=Cc1cc(O)c(O)c([N+](=O)[O-])c1)C(=O)C1CC1)C1CC1
155 to 156 | CC1=C(C)CC(C(=O)Nc2ccccc2)C(C(=O)O)C1 (stereo unspecified)
137 | COc1ccc(C(=O)OC2(c3nc4ccccc4s3)C=CC(=O)C=C2)cc1
207 to 210 | CSC(=S)NN=Cc1nc(Cc2ccccc2)[nH]c1C
134 to 135 | CC(C)N(CCOc1ccc(CC2SC(=O)NC2=O)cc1)C(C)C (stereo unspecified)
255 to 257 | Cc1cc(-c2nnc3c4cccnc4c(OCc4ncnn4C)nn23)no1
163 to 164 | Cc1cc2ncc(C#N)c(Cl)c2s1
105 to 107 | COc1ccc2c(c1)N(Cc1ccccc1)C(=O)C1CCCC1=N2 (stereo unspecified)
148 to 153 | N#CC(=CNc1ccccc1)Cc1ccc2ccccc2c1
147 to 149 | COc1ccc(-c2nc(Sc3cccc(F)c3)[nH]c2-c2ccc(OC)cc2)cc1
145 to 146 | CC(C)Sc1cc(O)c(N)c(C#N)c1
227 to 228 | Cc1ccccc1-n1c(-c2sc(Nc3ccccc3)nc2C)nc2ccccc2c1=O
118 to 120 | O=C(O)c1ccccc1OCCN1CCC(c2cn(CCC3OCCO3)c3ccccc23)CC1
124 to 126 | CCCc1cc(C(O)=S)cc(N)c1C(=O)c1ccccc1
90.5 to 91.5 | CC(C)NC(=O)C1(C(C)C)CCCC1C (stereo unspecified)
272 to 273 | O=C(O)c1cc(-c2ccc(-c3ccc(C(F)(F)F)cc3)o2)ccc1O
233 to 234 | OC(c1ccc(Cl)cc1)(c1ccc(Cl)cc1)c1nnc[nH]1
116 to 118 | COC(=O)CCC(CS(=O)(=O)c1ccc2ccccc2c1)C(=O)N(CCC1CCCCC1)CCC1CCCCC1 (stereo unspecified)
54 | COC(=O)CCCc1cc2cc(Cl)ccc2n1S(=O)(=O)c1ccc(S(=O)(=O)N2CCOCC2)cc1
187 | O=C(O)C12C3C4C5C(C1C53[N+](=O)[O-])C42[N+](=O)[O-] (stereo unspecified)
90 to 95 | Cn1c(COc2ccc(CC3SC(=O)N(C(c4ccccc4)(c4ccccc4)c4ccccc4)C3=O)cc2)nc2ccc(Sc3ccccc3)nc21 (stereo unspecified)
189 to 191 | CC[C@@H]1CN(c2c(F)cc3c(=O)c(C(=O)O)cn4c3c2OC[C@@H]4C)C[C@H]1N

melting point [°C] | Compound
124 | Cc1cc(C(N)=O)ccc1N
234 to 236 | Nc1ncnc2c1c(-c1ccc(Oc3ccccc3)cc1)cn2C1COCC1O (stereo unspecified)
221 to 222 | CC(C(O)c1ccc2[nH]c(=O)[nH]c2c1)N1CCC(Cc2ccccc2)CC1 (stereo unspecified)
97 to 99 | Cn1c(C(=O)OC(C)(C)C)c(Br)c2cc(OCc3ccccc3)ccc21
164 to 165 | Nc1nc2c(s1)CCN(CC=Cc1ccc3ccccc3c1)CC2
90 to 91 | CCCCCCC(C(=O)O)c1cccc(Sc2ccccc2C)c1O (stereo unspecified)
100 to 101 | CCN1CN(c2ccc(Cl)cc2)c2ncccc2C1=O
44 to 45 | COC(=O)C1CC2CCC1N(C(=O)OC(C)(C)C)C2 (stereo unspecified)
143 to 144 | COc1ccc2c(c1)c(CC(=O)NN)cn2Cc1ccccc1
163 to 165 | NC=C1Cc2ccccc2C1=O
84 to 86 | CC(=O)NC[C@H]1CN(c2ccc3c(c2)CS(=O)(=O)N3C)C(=O)O1
124 to 126 | C#CCOCCn1cnc2cnc3ccccc3c21
67 to 69 | Cc1cc(CCCCCOc2c(Cl)cc(C(=O)O)cc2Cl)on1
169 to 170 | O=c1cc(-c2cccc(F)c2)oc(N2CCOCC2)c1
132 | CSc1ccc(C(C)Nc2nc(NC(C)=O)nc(C(F)(F)F)n2)cc1 (stereo unspecified)
125 to 128 | Cc1nnc2c(C(C)Br)ccnn12 (stereo unspecified)
127 to 128 | COC(=O)CCn1c(=O)n(CCN2CCN(c3ccccc3OC)CC2)c(=O)c2c(C)scc21
128 to 130 | CCOC(=O)c1cnc2onc(C)c2c1N(CS(=O)(=O)c1ccc(OC)cc1)c1cccnc1
138 to 141 | COc1ccc(C)cc1NC(=O)Nc1ccc(N2CCN(C(=O)Nc3ccc(CO)cc3C)CC2)cc1
55 to 57 | CC(O)COC1CCNCC1 (stereo unspecified)
153 to 155 | COc1ccc(CC(=O)NC(NC(Cc2ccccc2C)=NC#N)C(C)(C)C)cc1OC (stereo unspecified)
75.5 to 76.5 | COc1ccc(-n2cccc2)c([N+](=O)[O-])c1
